Reference: patent publication US20020035061A1, “COMPOSITIONS AND METHODS FOR TREATING INFECTIONS USING CATIONIC PEPTIDES ALONE OR IN COMBINATION WITH ANTIBIOTICS” (priority 1996, published 2002)
Read-outs that look alike come from different tables or passages of the source.

Assays:
Type in all cases: cell-based
[1] = system: K. pneumoniae; details: K. pneumoniae strain KP001
[2] = system: E. coli; details: for Peptide MIC values: agarose dilution
[3] = system: E. faecium
[4] = system: H. influenzae; assay: Agarose dilution assay (MIC); details: H. influenzae strain HIN002
[5] = system: A. calcoaceticus; details: A. calcoaceticus strain AC001
[6] = system: E. cloacae; details: E. cloacae strain ECL007
[7] = system: P. vulgaris; assay: Agarose dilution assay (MIC)
[8] = system: E. faecalis; details: E. faecalis strain EFS002
[9] = system: S. pneumoniae; assay: Agarose dilution assay (MIC); details: for Peptide MIC values: agarose dilution
[10] = system: S. maltophilia; details: S. maltophilia strain SMA001
[11] = system: bacterial isolates; assay: microbe, parasite or virus in culture; details: E. coli SBECO1
[12] = system: HUVEC, human umbilical vein endothelial cells; assay: Cell death by Cytotox (Promega) lactate dehydrogenase release; details: LDH release
Method: (§1) In addition, APO-peptides and parent peptides are tested against a panel of cancer cell lines. Cell death is measured using the Cytotox (Promega) assay kit which measures the release of lactate dehydrogenase.
(§2) PBL, peripheral blood lymphocytes; HUVEC, human umbilical vein endothelial cells; H460,non-small lung tumor; K562, chronic myelogenous leukemia; DoHH-2, B-cell cell lymphoma; P388, lymphocytic leukemia; P388ADR, lymphocytic leukemia, multidrug resistant; MCF-7, breast carcinoma; MCF-7ADR, breast carcinoma, multidrug resistant.

[13] = system: P388, lymphocytic leukemia; assay: as above; details: LDH release
Method: as §1, §2

[14] = system: H460, non-small lung tumor; assay: as above; details: LDH release
Method: as §1, §2

[15] = system: DoHH-2, B-cell cell lymphoma; assay: as above; details: LDH release
Method: as §1, §2

[16] = system: P388ADR, lymphocytic leukemia, multidrug resistant; assay: as above; details: LDH release
Method: as §1, §2

[17] = system: PBL, peripheral blood lymphocytes; assay: as above; details: LDH release
Method: as §1, §2

[18] = system: K562, chronic myelogenous leukemia; assay: as above; details: LDH release
Method: as §1, §2

[19] = system: S. marcescens; details: for Peptide MIC values: agarose dilution
[20] = system: P. aeruginosa; details: for Peptide MIC values: agarose dilution
[21] = system: S. epidermidis; details: S. epidermidis strain SE002
[22] = system: S. aureus; details: for Peptide MIC values: agarose dilution

ILKKYPYYPYRRK [MBI 11A3CN]
MIC [1]: >128 µg/mL
MIC ([2]; E. coli strain ECO002): >128 µg/mL
Peptide MIC values ([2]; E. coli ATCC 25922): >128 µg/mL
Peptide MIC values ([2]; E. coli ESS): >128 µg/mL
Peptide MIC values ([2]; E. coli NCTC 10418): 64 µg/mL
MIC ([3]; E. faecium strain EFM003): 64 µg/mL
Peptide MIC values ([3]; agarose dilution): >128 µg/mL
MIC [4]: >128 µg/mL
MIC [5]: >128 µg/mL
MIC [6]: >128 µg/mL
MIC ([7]; P. vulgaris strain SBPV1): >128 µg/mL
Peptide MIC values ([7]; agarose dilution, P. vulgaris ATCC 13315): >128 µg/mL
MIC [8]: >128 µg/mL
MIC ([9]; S. pneumoniae strain SBSPN3): >128 µg/mL
Peptide MIC values ([9]; S. pneumoniae 406LE8): >128 µg/mL
Peptide MIC values ([9]; S. pneumoniae 60120): >128 µg/mL
Peptide MIC values ([9]; S. pneumoniae ATCC 49619): >128 µg/mL
MIC [10]: >128 µg/mL
Mupirocin MIC + Peptide [11]: 30 µg/mL
Peptide MIC + Mupirocin [11]: 8 µg/mL
Peptide MIC Alone ([11]; Mupirocin section): 64 µg/mL
FIC ([11]; peptide + Mupirocin): 0.43
LC50 ± S.E., HUVEC [12]: >500 µg/mL
LC50 ± S.E., P388 [13]: >300 µg/mL
LC50 ± S.E., H460 [14]: >500 µg/mL
LC50 ± S.E., DoHH-2 [15]: >500 µg/mL
LC50 ± S.E., P388 ADR [16]: >300 µg/mL
LC50 ± S.E., PBL [17]: >500 µg/mL
LC50 ± S.E., K562 [18]: >500 µg/mL
MIC ([19]; S. marcescens strain SBSM2): >128 µg/mL
Peptide MIC values ([19]; S. marcescens SM76): >128 µg/mL
Peptide MIC values ([19]; S. marcescens SM82): >128 µg/mL
MIC ([20]; P. aeruginosa strain PA002): >128 µg/mL
Peptide MIC values ([20]; P. aeruginosa ATCC 27853): >128 µg/mL
Peptide MIC values ([20]; P. aeruginosa NCTC 10662): >128 µg/mL
MIC [21]: 128 µg/mL
MIC ([22]; S. aureus strain SA004): 32 µg/mL
Peptide MIC values ([22]; S. aureus ATCC 29213): 16 µg/mL
Peptide MIC values ([22]; S. aureus MRSA9): 128 µg/mL
Peptide MIC values ([22]; S. aureus MRSA13): >128 µg/mL
Peptide MIC values ([22]; S. aureus MRSA17): >128 µg/mL
Peptide MIC values ([22]; S. aureus SA206): >128 µg/mL
